What was measured:
Format in all cases: binding
Parameters in all cases: KINOMEscan: ABL1(F317L)-phosphorylated / KINOMEscan: ABL1(H396P)-nonphosphorylated / KINOMEscan: ABL1(H396P)-phosphorylated / KINOMEscan: ABL1(M351T)-phosphorylated / KINOMEscan: ABL1(T315I)-phosphorylated / KINOMEscan: ABL1-nonphosphorylated / KINOMEscan: ABL1-phosphorylated / KINOMEscan: ACVR2A / KINOMEscan: ACVR2B / KINOMEscan: ADCK3 / KINOMEscan: ADCK4 / KINOMEscan: AKT1 / KINOMEscan: AKT3 / KINOMEscan: ALK / KINOMEscan: ARK5 / KINOMEscan: AURKA / KINOMEscan: AURKC / KINOMEscan: BIKE / KINOMEscan: BMPR1A / KINOMEscan: BMPR1B / KINOMEscan: BMX / KINOMEscan: BRK / KINOMEscan: BRSK1 / KINOMEscan: BRSK2 / KINOMEscan: CAMK1 / KINOMEscan: CAMK1D / KINOMEscan: CAMK1G / KINOMEscan: CAMK2A / KINOMEscan: CAMK2B / KINOMEscan: AAK1 / KINOMEscan: CAMK2D / KINOMEscan: CAMK2G / KINOMEscan: ABL1(F317I)-nonphosphorylated / KINOMEscan: ABL1(F317I)-phosphorylated / KINOMEscan: ABL1(F317L)-nonphosphorylated: unit: % Ctrl
[1] = target: T1, panel of 442 kinases (Homo sapiens, UniProt P27037); conditions: Compound Concentration 10 µM
T1 construct: purchased KINOMEscan
Excerpt: (§1) We assessed the selectivity of members of this scaffold using the KINOMEscan methodology across a near comprehensive panel of 442 kinases [[18,27]].

[2] = target: T2, panel of 442 kinases (Homo sapiens, UniProt P57059); conditions: kinase SIK; compound concentration 10 µM
T2 construct: purchased KINOMEscan
Excerpt: as §1

[3] = target: T3, panel of 442 kinases (Homo sapiens, UniProt P10721, D816H); conditions: Compound Concentration 10 µM
T3 construct: purchased KINOMEscan
Excerpt: as §1

[4] = target: T4, panel of 442 kinases (Homo sapiens, UniProt P35916); conditions: Compound Concentration 10 µM
T4 construct: purchased KINOMEscan
Excerpt: as §1

T2 sequence (P57059 whole entry): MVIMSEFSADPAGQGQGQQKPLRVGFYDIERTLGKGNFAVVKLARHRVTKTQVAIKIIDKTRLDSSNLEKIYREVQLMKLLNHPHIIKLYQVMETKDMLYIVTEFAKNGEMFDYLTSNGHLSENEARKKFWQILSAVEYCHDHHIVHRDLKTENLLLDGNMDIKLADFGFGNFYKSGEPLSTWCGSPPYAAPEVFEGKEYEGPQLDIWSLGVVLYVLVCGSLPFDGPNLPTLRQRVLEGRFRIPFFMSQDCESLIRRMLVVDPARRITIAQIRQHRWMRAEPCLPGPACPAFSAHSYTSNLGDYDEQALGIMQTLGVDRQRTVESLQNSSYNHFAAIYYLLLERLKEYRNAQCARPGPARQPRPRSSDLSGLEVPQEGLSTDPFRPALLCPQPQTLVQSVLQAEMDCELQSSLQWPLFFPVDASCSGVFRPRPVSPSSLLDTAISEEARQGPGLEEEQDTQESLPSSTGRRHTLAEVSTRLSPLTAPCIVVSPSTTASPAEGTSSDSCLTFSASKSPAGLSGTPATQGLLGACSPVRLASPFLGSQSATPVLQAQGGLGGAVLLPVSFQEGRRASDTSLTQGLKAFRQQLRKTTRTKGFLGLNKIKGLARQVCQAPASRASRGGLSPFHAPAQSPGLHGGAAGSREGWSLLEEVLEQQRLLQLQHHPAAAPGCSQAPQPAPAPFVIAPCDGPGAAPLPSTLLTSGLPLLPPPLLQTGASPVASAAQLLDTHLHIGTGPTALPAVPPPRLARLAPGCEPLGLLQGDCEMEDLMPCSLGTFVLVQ
T4 sequence (P35916 25-1363): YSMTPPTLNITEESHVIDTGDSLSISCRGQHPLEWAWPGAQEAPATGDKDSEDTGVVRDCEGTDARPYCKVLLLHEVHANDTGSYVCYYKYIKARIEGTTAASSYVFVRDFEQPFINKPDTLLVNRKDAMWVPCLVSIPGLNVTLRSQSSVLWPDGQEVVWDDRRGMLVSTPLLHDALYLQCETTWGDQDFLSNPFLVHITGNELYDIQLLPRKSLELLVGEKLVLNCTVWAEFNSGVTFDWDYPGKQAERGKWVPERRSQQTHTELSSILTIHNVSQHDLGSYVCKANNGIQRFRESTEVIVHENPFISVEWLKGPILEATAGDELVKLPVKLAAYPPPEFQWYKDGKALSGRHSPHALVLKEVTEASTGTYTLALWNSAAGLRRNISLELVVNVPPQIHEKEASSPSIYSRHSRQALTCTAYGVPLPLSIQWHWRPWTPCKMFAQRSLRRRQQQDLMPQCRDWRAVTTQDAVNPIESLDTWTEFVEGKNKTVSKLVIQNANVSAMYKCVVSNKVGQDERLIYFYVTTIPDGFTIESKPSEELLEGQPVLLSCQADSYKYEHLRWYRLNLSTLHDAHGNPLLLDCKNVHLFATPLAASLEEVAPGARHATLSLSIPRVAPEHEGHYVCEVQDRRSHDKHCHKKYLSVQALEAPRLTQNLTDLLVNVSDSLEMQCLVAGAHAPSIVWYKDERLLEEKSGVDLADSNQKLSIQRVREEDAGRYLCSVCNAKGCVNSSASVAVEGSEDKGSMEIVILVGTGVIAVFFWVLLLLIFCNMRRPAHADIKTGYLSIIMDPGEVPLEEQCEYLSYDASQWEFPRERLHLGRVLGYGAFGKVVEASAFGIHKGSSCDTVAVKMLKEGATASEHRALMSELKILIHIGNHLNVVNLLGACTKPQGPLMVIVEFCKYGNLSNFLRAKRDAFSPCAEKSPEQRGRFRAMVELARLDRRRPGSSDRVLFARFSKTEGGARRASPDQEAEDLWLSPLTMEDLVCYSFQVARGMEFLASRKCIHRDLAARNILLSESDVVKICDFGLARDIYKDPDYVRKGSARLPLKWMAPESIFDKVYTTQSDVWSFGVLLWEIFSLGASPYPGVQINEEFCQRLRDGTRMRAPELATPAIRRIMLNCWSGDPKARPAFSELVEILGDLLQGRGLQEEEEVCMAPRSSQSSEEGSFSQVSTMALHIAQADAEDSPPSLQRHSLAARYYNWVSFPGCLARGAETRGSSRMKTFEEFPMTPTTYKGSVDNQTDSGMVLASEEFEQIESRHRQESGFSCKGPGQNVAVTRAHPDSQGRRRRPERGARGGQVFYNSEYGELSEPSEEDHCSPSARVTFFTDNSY
T3 sequence (P10721 26-976 D816H): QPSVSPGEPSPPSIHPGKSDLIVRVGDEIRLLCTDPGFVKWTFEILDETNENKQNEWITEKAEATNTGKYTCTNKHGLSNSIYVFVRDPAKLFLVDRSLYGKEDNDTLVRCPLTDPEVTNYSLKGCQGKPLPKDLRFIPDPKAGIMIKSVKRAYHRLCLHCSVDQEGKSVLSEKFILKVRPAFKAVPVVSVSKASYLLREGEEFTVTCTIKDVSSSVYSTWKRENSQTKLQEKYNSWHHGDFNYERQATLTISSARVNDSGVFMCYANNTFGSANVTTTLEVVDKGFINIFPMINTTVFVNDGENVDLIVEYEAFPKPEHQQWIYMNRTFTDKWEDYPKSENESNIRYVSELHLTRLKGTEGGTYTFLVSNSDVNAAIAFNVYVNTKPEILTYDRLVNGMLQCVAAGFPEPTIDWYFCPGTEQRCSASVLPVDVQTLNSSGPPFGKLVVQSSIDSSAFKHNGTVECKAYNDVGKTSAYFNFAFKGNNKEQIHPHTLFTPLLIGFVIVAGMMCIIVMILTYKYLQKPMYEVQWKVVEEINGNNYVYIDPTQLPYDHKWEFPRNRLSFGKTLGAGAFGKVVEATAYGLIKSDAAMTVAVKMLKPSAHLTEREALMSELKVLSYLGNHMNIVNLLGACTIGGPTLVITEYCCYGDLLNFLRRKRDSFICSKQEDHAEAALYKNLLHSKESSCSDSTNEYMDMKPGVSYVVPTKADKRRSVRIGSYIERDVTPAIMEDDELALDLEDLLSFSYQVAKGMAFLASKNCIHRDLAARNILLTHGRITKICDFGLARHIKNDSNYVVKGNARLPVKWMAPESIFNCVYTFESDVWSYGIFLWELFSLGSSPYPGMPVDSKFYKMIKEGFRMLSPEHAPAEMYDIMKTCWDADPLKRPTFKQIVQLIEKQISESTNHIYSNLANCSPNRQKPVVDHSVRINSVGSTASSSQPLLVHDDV
T1 sequence (P27037 20-513): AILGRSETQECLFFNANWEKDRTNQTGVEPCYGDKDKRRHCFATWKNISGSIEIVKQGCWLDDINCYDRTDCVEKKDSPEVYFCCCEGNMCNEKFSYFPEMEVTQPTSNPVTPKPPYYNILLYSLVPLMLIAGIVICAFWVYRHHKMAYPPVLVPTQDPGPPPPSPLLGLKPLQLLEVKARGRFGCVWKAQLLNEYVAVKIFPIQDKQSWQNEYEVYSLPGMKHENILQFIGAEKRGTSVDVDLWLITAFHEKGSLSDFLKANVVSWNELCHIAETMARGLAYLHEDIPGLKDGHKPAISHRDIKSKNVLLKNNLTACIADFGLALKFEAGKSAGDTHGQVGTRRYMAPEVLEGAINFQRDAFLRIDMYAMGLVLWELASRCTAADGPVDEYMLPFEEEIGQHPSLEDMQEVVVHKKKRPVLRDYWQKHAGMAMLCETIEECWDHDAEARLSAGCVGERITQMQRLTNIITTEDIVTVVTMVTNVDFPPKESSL

| SMILES | KINOMEscan: ACVR2A [1] | % Ctrl, SIK [2] [% Ctrl] | KINOMEscan: KIT(D816H) [3] | KINOMEscan: FLT4 [4] |
| --- | --- | --- | --- | --- |
| COc1cc(C(=O)N2CCC(N3CCN(C)CC3)CC2)ccc1Nc1ncc2c(n1)N(C)c1ccccc1C(=O)N2C [15 (LRRK2-IN-1)] | 100 | 77 | 100 | 100 |
| COc1cc(C(=O)N2CCC(N3CCN(C)CC3)CC2)ccc1Nc1ncc2c(n1)N1CCc3cccc(c31)C(=O)N2C [Compound 24] | 71 | 90 |  |  |
| COc1cc(C(=O)N2CCC(N3CCN(C)CC3)CC2)ccc1Nc1ncc2c(n1)N(C1CCCC1)c1ccccc1C(=O)N2C [Compound 25, 11-cyclopentyl-2-((2-methoxy-4-(4-(4-methylpiperazin-1-yl)piperidine-1-carbonyl)phenyl)amino)-5-methyl-5H-benzo[e]pyrimido[5,4-b][1,4]diazepin-6(11H)-one] | 93 | 98 | 100 | 100 |
| CCOc1cc(C(=O)N2CCC(N3CCN(C)CC3)CC2)ccc1Nc1ncc2c(n1)N(C1CCCC1)c1ccccc1C(=O)N2C [Compound 26] | 95 | 100 | 100 | 100 |

Reference: article PMC3914206
